Experimental data reported in patent US8329904B2, “Azacyclic derivatives” (Hoffmann-La Roche Inc., priority 2009, dated 2012).

Each compound was assayed against T1, human HSL (Homo sapiens, UniProt Q05469) (assay: Human Hormone-Sensitive Lipase (HSL) Enzyme Inhibition Assay). Conditions: colorimetric assay, 2,3-dimercapto-1-propanol tributyrate (DMPT) substrate, 37° C. for 20 minutes, absorbance at 405 nm; read-out: HSL hum IC50.
T1 construct: overlapping PCR to generate a full length human HSL ORF with a 3′-His6 tag; His6 (C); made in house; host or cells: High 5 insect cells (baculovirus, pFast-BAC)
T1 sequence (Q05469 1-1076): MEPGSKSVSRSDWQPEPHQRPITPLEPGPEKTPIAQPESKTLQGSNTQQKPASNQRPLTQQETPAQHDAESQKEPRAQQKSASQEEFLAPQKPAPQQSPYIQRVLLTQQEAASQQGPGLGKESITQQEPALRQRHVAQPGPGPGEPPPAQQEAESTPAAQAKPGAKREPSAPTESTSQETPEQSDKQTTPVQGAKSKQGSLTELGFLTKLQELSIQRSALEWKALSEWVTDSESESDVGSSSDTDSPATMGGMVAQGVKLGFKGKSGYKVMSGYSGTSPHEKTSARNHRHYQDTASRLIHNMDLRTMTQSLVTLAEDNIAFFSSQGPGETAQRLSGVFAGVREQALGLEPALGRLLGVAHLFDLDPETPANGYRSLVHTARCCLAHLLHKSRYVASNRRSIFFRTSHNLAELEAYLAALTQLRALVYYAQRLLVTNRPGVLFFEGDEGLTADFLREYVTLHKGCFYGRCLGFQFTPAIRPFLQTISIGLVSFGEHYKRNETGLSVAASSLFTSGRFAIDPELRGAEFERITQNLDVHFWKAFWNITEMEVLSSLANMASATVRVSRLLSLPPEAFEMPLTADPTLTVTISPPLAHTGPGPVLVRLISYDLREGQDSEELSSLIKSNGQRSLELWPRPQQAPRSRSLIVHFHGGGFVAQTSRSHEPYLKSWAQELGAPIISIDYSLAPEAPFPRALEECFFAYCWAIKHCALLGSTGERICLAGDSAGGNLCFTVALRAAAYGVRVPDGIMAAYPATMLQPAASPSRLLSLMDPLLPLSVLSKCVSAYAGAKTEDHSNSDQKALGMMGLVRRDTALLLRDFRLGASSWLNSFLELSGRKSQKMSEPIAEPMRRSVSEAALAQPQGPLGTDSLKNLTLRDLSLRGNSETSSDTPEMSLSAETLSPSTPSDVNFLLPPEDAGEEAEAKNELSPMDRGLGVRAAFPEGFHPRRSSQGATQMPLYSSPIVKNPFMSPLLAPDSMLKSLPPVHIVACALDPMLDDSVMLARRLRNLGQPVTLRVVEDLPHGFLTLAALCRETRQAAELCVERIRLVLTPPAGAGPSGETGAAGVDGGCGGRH
Format: biochemical
Procedure: Production of Human Full Length Hormone Sensitive Lipase-His^6
1) Cloning: cDNA was prepared from commercial human brain polyA-+ RNA and used as a template in overlapping PCR to generate a full length human HSL ORF with a 3′-His6 tag. This full length insert was cloned into the pFast-BAC vector and the DNA-sequence of several single clones was verified. DNA from a correct full length clone with the 3′His6 tag was used to transform the E. coli strain DH10BAC. Resulting bacmid DNA was used to generate a titered baculovirus stock for protein generation.
Cells were thawed. […] was done at 3×30 sec., Lubrol PX was added to 0.2% final concentration followed by stirring for 15 min. at 4° C. and centrifugation at 25 k×g, 60 min., 4° C. […] Supernatant was removed, the resin washed in the centrifuge vessel using 5 volumes of Base Buffer containing 0.2% Lubrol PX. Centrifugation was done again, then the supernatant discarded. The resin wass poured onto a 0.8 μm membrane in a disposable filter unit (Nalge 450-0080), and washed with 5 volumes of Base Buffer containing 0.2% Lubrol PX. It was then washed with 30 volumes of Base Buffer containing 60 mM imidazole pH 7.5 at 4° C. The protein was eluated with 5 volumes of 25 mM Tris-Cl, 300 mM NaCl, 200 mM imidazole, 10 mM 2-mercaptoethanol, pH 7.5 at 4° C. by tumbling resin with buffer end-over-end, 30 min., 4° C. The resin was captured on a 0.2 μm membrane disposable filter unit (Millipore SCGP U02 RE) and the eluate collected in the reservoir. The eluate was concentrated using a 30 k MWCO centrifugal filter device (Sartorius Vivascience Vivacell 100, VC1022), to 20 ml. It was then dialyzed overnight at 4° C., two times against 2 L of 10% glycerol, 25 mM Tris-Cl, 300 mM NaCl, 0.2 mM EDTA, 0.2 mM DTT, pH 7.5 at 4° C. The protein was filtered using a 0.22 μm disposable filter unit (Millipore SCGP00525). The protein concentration was calculated from absorbance at 280 nm, using 280=0.67 cm-1 mg-1. […] The protein was stored at −80° C.
Human Hormone-Sensitive Lipase (HSL) Enzyme Inhibition Assay:
HSL enzyme activity was measured by a colorimetric assay using 2,3-dimercapto-1-propanol tributyrate (Aldrich, St. Louis, Mo.) as a substrate. Typically, 1.5 mM 2,3-dimercapto-1-propanol tributyrate (DMPT) in 100 mM MOPS, pH 7.2, 0.2 mg/ml fatty acid-free BSA was prepared by sonication at 4° C. to homogenous suspension. Test compounds (2 mM stock in DMSO) were diluted 3 fold in series in DMSO. Compound solutions were diluted 24 fold in 1.5 mM DMPT containing solution and 18 ul per well was added to 384-well microplates (Corning Costar). Twelve microliters per well of human HSL (15 ug/ml) was added and the reaction mixture was incubated at 37° C. for 20 minutes. Six microliters of 12 mM dithio-bis-(2-nitrobenzoic acid) (DTNB) in DMSO plus 1.2% SDS and 0.6% Triton X-100 were added and the mixture was incubated at room temperature for 15 minutes. Product production was monitored by reading absorbance at 405 nm on an Envision Reader (PerkinElmer Life and Analytical Sciences, Shelton, Conn.).

Row | SMILES | IC50 [nM]
1 | CCC(C)c1ccc(N2CCC3(CCN(C(=O)CC(C)(C)C)CC3)C2=O)cc1 (stereo not shown) [Example 46, 2-(4-sec-Butyl-phenyl)-8-(3,3-dimethyl-butyryl)-2,8-diaza-spiro[4.5]decan-1-one] | 150
2 | O=C1N(Cc2ccc(OC(F)(F)F)cc2)CCC12CCN(S(=O)(=O)c1ccccc1Cl)CC2 [Example 49, 8-(2-Chloro-benzenesulfonyl)-2-(4-trifluoromethoxy-benzyl)-2,8-diaza-spiro[4.5]decan-1-one] | 150
3 | CS(=O)(=O)c1ccccc1S(=O)(=O)N1CCC2(CCN(c3ccc(OC(F)(F)F)cc3)C2=O)CC1 [Example 51, 8-(2-Methanesulfonyl-benzenesulfonyl)-2-(4-trifluoromethoxy-phenyl)-2,8-diaza-spiro[4.5]decan-1-one] | 140
4 | CCc1ccc(N2CCC3(CCN(S(=O)(=O)c4ccccc4S(C)(=O)=O)CC3)C2=O)cc1 [Example 52, 2-(4-Ethyl-phenyl)-8-(2-methanesulfonyl-benzenesulfonyl)-2,8-diaza-spiro[4.5]decan-1-one] | 210
5 | CC(C)(C)CS(=O)(=O)N1CCC2(CCN(c3ccc(OS(C)(=O)=O)cc3)C2=O)CC1 [Example 53, Methanesulfonic acid 4-[8-(2,2-dimethyl-propane-1-sulfonyl)-1-oxo-2,8-diaza-spiro[4.5]dec-2-yl]-phenyl ester] | 110
6 | CCCc1ccc(N2CCC3(CCN(S(=O)(=O)c4ccccc4S(C)(=O)=O)CC3)C2=O)cc1 [Example 57, 8-(2-Methanesulfonyl-benzenesulfonyl)-2-(4-propyl-phenyl)-2,8-diaza-spiro[4.5]decan-1-one] | 140
7 | CC(C)CS(=O)(=O)N1CCC2(CCN(c3ccc(OS(C)(=O)=O)cc3)C2=O)CC1 [Example 62, Methanesulfonic acid 4-[8-(2-methyl-propane-1-sulfonyl)-1-oxo-2,8-diaza-spiro[4.5]dec-2-yl]-phenyl ester] | 250
8 | CC(C)CS(=O)(=O)N1CCC2(CCN(c3ccc(OCC(F)(F)F)cc3)C2=O)CC1 [Example 63, 8-(2-Methyl-propane-1-sulfonyl)-2-[4-(2,2,2-trifluoro-ethoxy)-phenyl]-2,8-diaza-spiro[4.5]decan-1-one] | 210
9 | CC(C)CS(=O)(=O)N1CCC2(CCN(c3ccc(OS(=O)(=O)C4CC4)cc3)C2=O)CC1 [Example 64, Cyclopropanesulfonic acid 4-[8-(2-methyl-propane-1-sulfonyl)-1-oxo-2,8-diaza-spiro[4.5]dec-2-yl]-phenyl ester] | 220
10 | CC(C)CS(=O)(=O)N1CCC2(CCN(c3ccc(C4CC4)cc3)C2=O)CC1 [Example 65, 2-(4-Cyclopropyl-phenyl)-8-(2-methyl-propane-1-sulfonyl)-2,8-diaza-spiro[4.5]decan-1-one] | 100
11 | CC(C)CS(=O)(=O)N1CCC2(CCN(c3ccc(OC4CCCC4)cc3)C2=O)CC1 [Example 66, 2-(4-Cyclopentyloxy-phenyl)-8-(2-methyl-propane-1-sulfonyl)-2,8-diaza-spiro[4.5]decan-1-one] | 160

These reach a lower IC50. Values come first.

Row | IC50 [nM] | SMILES
12 | 40 | O=C1N(CCc2ccc(Cl)cc2)CCC12CCN(S(=O)(=O)c1ccccc1Cl)CC2 [Example 47, 8-(2-Chloro-benzenesulfonyl)-2-[2-(4-chloro-phenyl)-ethyl]-2,8-diaza-spiro[4.5]decan-1-one]
13 | 30 | CS(=O)(=O)Oc1ccc(N2CCC3(CCN(S(=O)(=O)c4ccccc4Cl)CC3)C2=O)cc1 [Example 48, Methanesulfonic acid 4-[8-(2-chloro-benzenesulfonyl)-1-oxo-2,8-diaza-spiro[4.5]dec-2-yl]-phenyl ester]
14 | 60 | Cc1ccc(S(=O)(=O)N2CCC3(CCN(c4ccc(OS(C)(=O)=O)cc4)C3=O)CC2)s1 [Example 50, Methanesulfonic acid 4-[8-(5-methyl-thiophene-2-sulfonyl)-1-oxo-2,8-diaza-spiro[4.5]dec-2-yl]-phenyl ester]
15 | 30 | CCc1ccc(N2CCC3(CCN(S(=O)(=O)c4ccccc4OC(F)(F)F)CC3)C2=O)cc1 [Example 54, 2-(4-Ethyl-phenyl)-8-(2-trifluoromethoxy-benzenesulfonyl)-2,8-diaza-spiro[4.5]decan-1-one]
16 | 20 | O=C1N(c2ccc(OC(F)(F)F)cc2)CCC12CCN(S(=O)(=O)c1ccccc1OC(F)(F)F)CC2 [Example 55, 8-(2-Trifluoromethoxy-benzenesulfonyl)-2-(4-trifluoromethoxy-phenyl)-2,8-diaza-spiro[4.5]decan-1-one]
17 | 20 | CS(=O)(=O)Oc1ccc(N2CCC3(CCN(S(=O)(=O)c4ccccc4OC(F)(F)F)CC3)C2=O)cc1 [Example 56, Methanesulfonic acid 4-[1-oxo-8-(2-trifluoromethoxy-benzenesulfonyl)-2,8-diaza-spiro[4.5]dec-2-yl]-phenyl ester]
18 | 40 | CCCc1ccc(N2CCC3(CCN(S(=O)(=O)c4ccccc4OC(F)(F)F)CC3)C2=O)cc1 [Example 58, 2-(4-Propyl-phenyl)-8-(2-trifluoromethoxy-benzenesulfonyl)-2,8-diaza-spiro[4.5]decan-1-one]
19 | 30 | CS(=O)(=O)Oc1ccc(N2CCC3(CCN(S(=O)(=O)c4cccs4)CC3)C2=O)cc1 [Example 59, Methanesulfonic acid 4-[1-oxo-8-(thiophene-2-sulfonyl)-2,8-diaza-spiro[4.5]dec-2-yl]-phenyl ester]
20 | 40 | CC(C)CS(=O)(=O)N1CCC2(CCN(c3ccc(CC(F)(F)F)cc3)C2=O)CC1 [Example 60, 8-(2-Methyl-propane-1-sulfonyl)-2-[4-(2,2,2-trifluoro-ethyl)-phenyl]-2,8-diaza-spiro[4.5]decan-1-one]
21 | 70 | CCC(C)c1ccc(N2CCC3(CCN(S(=O)(=O)CC(C)C)CC3)C2=O)cc1 (stereo not shown) [Example 61, 2-(4-sec-Butyl-phenyl)-8-(2-methyl-propane-1-sulfonyl)-2,8-diaza-spiro[4.5]decan-1-one]
22 | 60 | CCc1ccc(N2CCC3(CCN(S(=O)(=O)c4ccccc4C(F)(F)F)CC3)C2=O)cc1 [Example 67, 2-(4-Ethyl-phenyl)-8-(2-trifluoromethyl-benzenesulfonyl)-2,8-diaza-spiro[4.5]decan-1-one]
